For one data set, the system named is bacterial growth. The arrangement: method as in PMID 23722434. Particulars: concentrations up to 40 µg/mL; cited from earlier work.
The subject of data set [1] is P. aeruginosa PAO1. The data set is described as follows: Real-time growth curves with sublethal concentrations. Format: cell-based. Particulars: 0.87 µM colistin alone. The procedure: (§1) Additionally, the effect of TMP-SMX and the GBBR analogues in combination with sublethal concentrations of colistin was assessed in growth curves of E. coli ATCC 25922, P. aeruginosa PAO1, and S. marcescens NIMA. Exponential-phase cultures were adjusted to 5 × 10^6 CFU/mL in a final volume of 10 mL of TSB and the antimicrobials were added at sublethal concentrations. Growth was monitored using RTS-1C real-time cell growth loggers (Biosan SIA, Riga, Latvia) in cells incubated for 24 h at 37 °C with shaking at 2000 rpm. Growth was measured every 10 min as the optical density (OD 850 nm).

The next data set relates to E. coli ATCC 25922. Described as above. Format: cell-based. To be noted: 0.11 µM colistin alone. The procedure: as §1
A further data set relates to Serratia marcescens NIMA. The data set is described as follows: MIC by microdilution (EUCAST), planktonic bacteria. Format: cell-based. Particulars: tested alone. The procedure: (§2) The minimum inhibitory concentrations (MICs) of colistin, TMP, 1a, and 1b were determined using the microdilution method, according to EUCAST recommendations.
Background: Dilution methods test growth across graded concentrations, often in twofold steps.

The test system of data set [2] is Pseudomonas aeruginosa PAO1. The arrangement: method as in PMID 31334221. Particulars: tested alone; cited from earlier work.
In data set [3] the test system is Escherichia coli ATCC 25922. Details: method as in PMID 31334221. Particulars: tested alone; cited from earlier work.
The test system of data set [4] is P. aeruginosa PAO1. The data set is described as follows: MIC in presence or absence of efflux pump inhibitor PAßN. To be noted: colistin alone. Format: cell-based. The procedure: The efflux pump inhibitor phenyl-arginyl-β-naphthylamide (PaβN) was purchased from Sigma-Aldrich Chemicals (Madrid, Spain). The MIC of the TMP analogues in combination with SMX in the presence of 20 µg PaβN/mL was determined in P. aeruginosa PAO1 using the microdilution method.

The nature of data set [5]: Cytotoxicity assay (resazurin). Format: cell-based, murine. To be noted: mouse, L-929 fibroblasts; 32 μg/mL, 24 h; percentage of dead cells. The procedure:
(§3) The cytotoxicity assay was carried out in the human hepatocellular carcinoma cell line Hep G2 ATCC and in murine L-929 fibroblasts (NCTC clone 929, ECACC 88102702), based on the experiments described by Vinuesa et al.. The cells were obtained from Dr. Ricardo Pérez-Tomás (Cancer Cell Biology, University of Barcelona). The cytotoxicity of TMP and compounds 1a and 1b was determined by measuring the intracellular reduction of resazurin sodium salt (Sigma-Aldrich, St. Louis, MO, USA). HepG2 and L-929 cells were grown in RPMI 1640 and MEM medium, respectively (Biochrom AG, Berlin, Germany), supplemented with 10% fetal bovine serum. Cells from pre-confluent cultures were harvested with trypsin-EDTA and maintained at 37 °C and 5% CO2. […] Twenty µL of resazurin was then added to each well and the plates were incubated under the same conditions. Fluorescence was measured at an excitation wavelength of 530 nm and an emission wavelength of 590 nm using a scanning multi-well spectrophotometer (FLUOstar OPTIMA, BMG Labtech, Germany). Cytotoxicity was calculated as follows:(1) % Cytotoxicity = 100−(AT−ADB)/(AC−AMB) ×100 where AT is the absorbance of the treated cells, ADB the absorbance of the drug blank control, AC the absorbance of the untreated cells, and ACB the absorbance of the medium blank.
Background: Alamar Blue is a resazurin reagent that responds to reducing activity.

Another data set relates to L-929 cells. In words: Cytotoxicity assay (resazurin). Format: cell-based, murine. The procedure:
as §3

A short description of data set [6]: Cytotoxicity assay (resazurin). Format: cell-based, human. Particulars: human, HepG2 cells; 32 μg/mL, 24 h; percentage of dead cells. The procedure: as §3
The next data set relates to HepG2 cells. In words: Cytotoxicity assay (resazurin). Format: cell-based, human. The procedure: as §3
The next data set has as its system S. marcescens NIMA. The data set is described as follows: Real-time growth curves with sublethal concentrations. Format: cell-based. To be noted: with SMX (1:20), in the presence of colistin. The procedure:
as §1

A further data set relates to E. coli 220560529. The data set is described as follows: Susceptibility test in TMP-resistant strain. Format: cell-based. Particulars: data not shown. The procedure:
as §2

A further data set has as its system S. epidermidis 220560752. The data set is described as follows: Susceptibility test in TMP-resistant strain. Format: cell-based. To be noted: data not shown. The procedure: as §2
For a further data set, the target named is T1, E. coli DHFR (Escherichia coli, UniProt P0ABQ4).
T1 construct: gift of E. Shakhnovich and J.V. Rodrigues (Harvard University)
T1 sequence (P0ABQ4 whole entry): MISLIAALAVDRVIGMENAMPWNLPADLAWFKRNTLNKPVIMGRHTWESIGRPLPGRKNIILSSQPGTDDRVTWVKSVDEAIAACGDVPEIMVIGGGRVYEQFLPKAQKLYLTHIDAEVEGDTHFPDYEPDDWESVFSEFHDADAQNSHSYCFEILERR
The data set is described as follows: Dihydrofolate reductase assay. Format: biochemical. To be noted: inhibitor 5 µM, 30 min incubation. The procedure:
The DHFR assay is based on the reduction of 7,8-dihydrofolate to 5,6,7,8-tetrahydrofolate catalyzed by DHFR and using NADPH as a cofactor. Purified E. coli DHFR was kindly provided by E. Shakhnovich and J.V. Rodrigues (Harvard University, Cambridge, MA, USA). The DHFR assay kit (CS0340) was purchased from Sigma-Aldrich. The assay was performed in 96-well flat-bottom plates (Corning Costar 3606, NY, USA) with the protocol adjusted to accommodate a final reaction volume of 200 µL. DHFR was diluted to a final concentration of 0.03 µg/mL. The inhibitory effect of compounds 1a and 1b was tested, with TMP serving as the control. All three drugs were used at a concentration of 5 µM, which was higher than the respective MICs (Table 1). To determine the effect of the concentration of the DHFR cofactor NADPH on inhibition, a dilution series of NADPH in assay buffer was carried out to obtain a concentration range between 60 µM and 240 µM. A dilution series of H2F was similarly carried out in assay buffer to obtain a concentration range from 50 µM to 200 µM. In all assays, the enzyme was mixed with the different inhibitors and incubated for 30 min before the enzymatic reaction was initiated by the addition of NADPH and H2F. The reaction was conducted at 37 °C and monitored by the decrease in absorbance at 340 nm (indicative of a decrease in the NADPH concentration). […]

The nature of data set [7]: Storage stability checked by HPLC-MS. Format: physicochemical. To be noted: for stability of stock solutions in DMSO: kept in the cold; for time after synthesis without signs of decomposition: stored at −20 °C under an inert atmosphere, HPLC-MS. The procedure:
Compounds 1a and 1b were prepared as previously reported, from the interaction of TMP with aldehydes and isocyanides in acetonitrile under Yb(OTf)3 catalysis. The compounds were purified by chromatography and stored at −20 °C under an inert atmosphere. Stock solutions in DMSO were stable when kept in the cold. The integrity of these compounds and solutions thereof was confirmed by HPLC-MS (column: ZORBAX Extend-C18 3.5 μm 2.1 × 50 mm, Agilent; mobile phase A: H2O + 0.05% HCOOH; mobile phase B: ACN + 0.05% HCOOH; 10 min; 35 °C). There were no signs of decomposition at least 1 year after their chemical synthesis.

Setting [8] is: Mus musculus, L929, 24 h, read-out: IC50 (drug concentration needed to inhibit cell growth by 50%).
[9] abbreviates: Homo sapiens, HepG2, 24 h, read-out: IC50 (drug concentration needed to inhibit cell growth by 50%).

In brackets after ≈: the same amount, converted by molar mass. Where two headings read alike, the source gives them in different places. Peptide text beside a SMILES is read from it. * marks the point of attachment. βNA = c1ccc2cc(N*)ccc2c1

Regarding `NC(N)=NCCC[C@H](NC(=O)[C@@H](N)Cc1ccccc1)C(=O)Nc1ccc2ccccc2c1` [PAßN, phenylalanine arginyl ß-naphthylamide] (H-Phe-Arg-βNA), in the data set on bacterial growth, the “effect on bacterial growth” value was “no detectable effect on bacterial growth”.
colistin: the delay in growth in the data set on P. aeruginosa PAO1 [1] is given as 2 h; with E. coli ATCC 25922 it was 10 h. For the same compound, the MIC (usually the smallest concentration in the dilution series that meets the test's criterion for growth inhibition) in the data set on Serratia marcescens NIMA was above 886.23 µM; in data set [2] it was 1.73 µM; in [3], 0.43 µM. Also, in the data set with P. aeruginosa PAO1 [4] (PAßN 20 µg/mL), the “MIC With PAßN” value was determined as 1.73 µM. The “MIC Without PAßN” value in the data set with P. aeruginosa PAO1 [4] was 1.73 µM.
On to `COc1cc(Cc2cnc(N)nc2N)cc(OC)c1OC` [TMP, Trimethoprim], for which the MIC in the data set on Serratia marcescens NIMA (Serratia marcescens) is 13.8 µM (≈ 4 µg/mL); in [2] it was above 110.22 µM; in [3] it was 0.43 µM (≈ 0.125 µg/mL). Moreover, the results for the cytotoxicity at 24 h, 32 μg/mL in [5] and in [6] were 0.8% and 0.35%, respectively. The IC50 in the data set on L-929 cells (Mus musculus, L929, 24 h; read-out: IC50 (drug concentration needed to inhibit cell growth by 50%)) was above 32 µg/mL; in the data set on HepG2 cells (Homo sapiens, HepG2, 24 h; read-out: IC50 (drug concentration needed to inhibit cell growth by 50%)) it was above 32 µg/mL.
Turning to `COc1cc(Cc2cn3c(NC4CCCCC4)c(-c4cccnc4)nc3nc2N)cc(OC)c1OC` [Compound 1b], in the data set with S. marcescens NIMA, the “effect on growth curve” value is “complete abolition of growth”. The “effect in TMP-resistant strain” value with E. coli 220560529 and with S. epidermidis 220560752 was “no significant effect” in each case. The MIC in the data set with Serratia marcescens NIMA (Serratia marcescens) was 16.4 µM (≈ 8 µg/mL); in data set [2] it was above 65.50 µM; in [3] it was 1.02 µM (≈ 0.498 µg/mL). For the same compound, the results for the cytotoxicity at 24 h, 32 μg/mL in data set [5] and in [6] were 0% and 0.11%, respectively. Besides, the IC50 in the data set with L-929 cells (setting [8]) and with HepG2 cells (setting [9]) was above 32 µg/mL in each case. Moreover, on E. coli DHFR, the inhibition (in general, the share of the control response that was lost under treatment) at 5 µM is above 80%. Further, in [7], the “stability of stock solutions in DMSO” value was “stable”. The “time after synthesis without signs of decomposition” value in [7] is given as “at least 1 year”.
On to `COc1cc(Cc2cn3c(NC(C)(C)C)c(C)nc3nc2N)cc(OC)c1OC` [Compound 1a], for which the “effect in TMP-resistant strain” value in the data set with E. coli 220560529 and with S. epidermidis 220560752 was “no significant effect” each time. In addition, the MIC was 80.1 µM (≈ 32 µg/mL) in the data set on Serratia marcescens NIMA (Serratia marcescens), above 80.10 µM in data set [2] and 1.25 µM (≈ 0.499 µg/mL) in data set [3]. For the same compound, the cytotoxicity at 24 h, 32 μg/mL in data set [5] turned out to be 0%. Moreover, the IC50 in the data set on L-929 cells (setting [8]) and in the data set with HepG2 cells (setting [9]) was above 32 µg/mL throughout. On E. coli DHFR, this compound had an inhibition at 5 µM above 80%. Further, the “stability of stock solutions in DMSO” value in [7] is “stable”. For the same compound, in [7], the “time after synthesis without signs of decomposition” value is listed as “at least 1 year”.

(Values after PMC8231229, “New Trimethoprim-Like Molecules: Bacteriological Evaluation and Insights into Their Action” (Antibiotics, 2021).)
